Where a name gives a salt, the structure may show the parent alone.
Key:
rat = assay: standard rat tail flick assay; format: in vivo; conditions: suspension in 20% PEG
Method: The assay was the standard rat tail flick assay. Test agents were administered intravenously as suspensions in 20% PEG.

delta receptors = assay: binding to delta receptors relative to mu opiate receptor; conditions: delta versus mu opiate receptor
kappa receptors = assay: binding to kappa receptors relative to mu opiate receptor; conditions: kappa versus mu opiate receptor

NC(Cc1ccc(O)cc1)C(=O)NC1CCCCNC(=O)C(Cc2ccccc2)NC(=O)C(Cc2c[nH]c3ccccc23)NC1=O [CYT-1010 TFA, H-Tyr-c-[D-Lys-Trp-Phe]]
Activity % MPE Ave (rat; IV dose 4 mg/kg, listed as TFA, 4 mg/kg): 25.4%
Activity % MPE Ave (rat; IV dose 8 mg/kg): 71.2%

NC(Cc1ccc(O)cc1)C(=O)NC1CCCCNC(=O)C(Cc2ccccc2)NC(=O)C(Cc2c[nH]c3ccccc23)NC1=O [CYT-1010 Acetate, H-Tyr-c-[D-Lys-Trp-Phe]]
Activity % MPE Ave (rat; IV dose 2 mg/kg, listed as Acetate, 2 mg/kg): 50.0%
Activity % MPE Ave (rat; IV dose 4 mg/kg, listed as Acetate, 4 mg/kg): 83.3%

NC(Cc1ccc(O)cc1)C(=O)NC1CCCCNC(=O)C(Cc2ccccc2)NC(=O)C(Cc2c[nH]c3ccccc23)NC1=O [CYT-1010 HCL, H-Tyr-c-[D-Lys-Trp-Phe]]
Activity % MPE Ave (rat; IV dose 4 mg/kg, listed as HCL, 4 mg/kg): 0.0%

NC(Cc1ccc(O)cc1)C(=O)NC1CCCCNC(=O)C(Cc2ccccc2)NC(=O)C(Cc2c[nH]c3ccccc23)NC1=O [CYT-1010 Lactate, H-Tyr-c-[D-Lys-Trp-Phe]]
Activity % MPE Ave (rat; IV dose 2 mg/kg, listed as Lactate, 2 mg/kg): 1.4%

H-Tyr-Pro-Trp-Phe-NH2 [SEQ ID NO:1]
weaker binding to delta receptors (selectivity for mu opiate receptor) (delta receptors): over 4000 fold
weaker binding to kappa receptors (selectivity for mu opiate receptor) (kappa receptors): over 15,000 fold

NC(Cc1ccc(O)cc1)C(=O)NC1CCCCNC(=O)C(Cc2ccccc2)NC(=O)C(Cc2c[nH]c3ccccc23)NC1=O [CYT-1010 Aspartate, H-Tyr-c-[D-Lys-Trp-Phe]]
Activity % MPE Ave (rat; IV dose 2 mg/kg, listed as Aspartate, 2 mg/kg): 7.4%

NC(Cc1ccc(O)cc1)C(=O)NC1CCCCNC(=O)C(Cc2ccccc2)NC(=O)C(Cc2c[nH]c3ccccc23)NC1=O [CYT-1010 Free Base, H-Tyr-c-[D-Lys-Trp-Phe]]
Activity % MPE Ave (rat; IV dose 2 mg/kg, listed as Free Base, 2 mg/kg): 77.7%
Activity % MPE Ave (rat; IV dose 4 mg/kg, listed as Free Base, 4 mg/kg): 100.0%
